Where “and” joins values, the source holds several entries; their conditions need not be identical. Equal entries are not always repeated. Structures can show the parent of a compound that is named as a salt.
What was measured:
Assay type in all cases: physicochemical
[1] = Solubility tests of compound of formula I, mixture of crystal forms A and B, and crystal form C at 37° C. (Example 13)
Procedure: An appropriate amount of a test sample was weighed out and added to a vial; 3 mL of a medium (water, SGF, FaSSIF, FeSSIF, or the like) was added; the mixture was stirred at 37° C.; […]; centrifugation was performed at 12000 rpm for 10 min; the supernatant was diluted with 50% aqueous acetonitrile solution to an appropriate multiple; and the concentration of the supernatant was determined.
(§1) Control and linearity: 10 mg of the compound of formula I was weighed out and added to a 50 mL volumetric flask, 50% aqueous acetonitrile solution was added for dissolution, and the mixture was diluted to volume. Two parts were prepared in parallel. The control was taken and diluted with 50% aqueous acetonitrile solution to 100 μg/mL, 50 μg/mL, and 10 μg/mL, 5 μL of the sample was injected, and a standard curve was plotted.

[2] = Stability investigation of crystal form C of monohydrochloride, 1 month (Example 11)
Procedure: […] The stability of the crystal form was investigated.
Detection method for related substances of the stability sample: about 6 mg of the sample was weighed out and added to a 40 mL clean glass bottle; 10 mL of 50% aqueous acetonitrile solution was added; the sample was dissolved completely by ultrasonication; and 10 μL of the sample was injected for the test of the related substances, as shown in Table 15. The XRPD pattern is shown in FIG. 18, wherein HCl-salt Form 3-initial (hereinafter referred to as initial) represents the XRPD pattern of the crystal form C prepared in Example 8.

[3] = Effect of high temperature and high humidity on crystal form C (Example 12); details: open, 60° C., 80% RH and 92.5% RH, 1 day and 3 days
Description: The sample was separately collected on 1d and 3d for XRPD testing.

[4] = Open storage of crystal form A under acceleration conditions (Example 7); details: 40° C./75% RH, 72 h
Description: The crystal form B is a monohydrate of the monohydrochloride of the compound of formula I.

[5] = Stability tests of compound of formula I and its monohydrochloride, phosphate and maleate (Example 4); details: for Stability (conclusion in words from Table 7): 40° C./75% RH closed/open and 60° C. closed, 2 wks
Procedure: The stability of the compound of formula I, the monohydrochloride of the compound of formula I in Example 1, the phosphate of the compound of formula I in Example 2, and the maleate of the compound of formula I in Example 3 were investigated.
Stability investigation conditions: 40° C./75% RH-closed, 40° C./75% RH-open, and 60° C.-closed; stability investigation content: changes in related substances and crystal forms.
Detection of related substances: about 6-7 mg of a sample was separately weighed out and added to a 10 mL volumetric flask; 50% aqueous acetonitrile solution was added for dissolution; the mixture was diluted to volume; and 10 μL of the sample was injected.

[6] = Solubility tests in water, SGF, FaSSIF, FeSSIF at 37° C. (Example 5)
Procedure: Experimental procedures: 30 mg (in water) or 15 mg of a sample was weighed out and added to a 4 mL vial; 3 mL of a medium to be tested (water, SGF, FaSSIF, or FeSSIF) was added; the mixture was continuously stirred at 37° C.; 0.5 mL of the sample was separately collected at 1 h and 24 h; centrifugation was performed at 12000 rpm for 10 min; the supernatant was diluted with 50% aqueous acetonitrile solution to an appropriate multiple; and the concentration of the supernatant was determined.
as §1, with “control of the compound of formula I” for “control”

[7] = pH 6.8 (adjusted with sodium hydroxide solution), 37° C.
[8] = pH 7.4 (adjusted with sodium hydroxide solution), 37° C.
[9] = Initial, listed as Crystal form C of monohydrochloride of compound of formula I
[10] = FaSSIF, listed as Compound of formula I Hydrochloride
[11] = FeSSIF, listed as Compound of formula I Hydrochloride
[12] = SGF, listed as Compound of formula I Hydrochloride
[13] = Water, listed as Compound of formula I Hydrochloride

In the case of `COc1cc(C)c2[nH]ccc2c1CN1CCC(OCC2CC2)CC1c1ccc(C(=O)O)cc1.Cl` (stereo not shown) [Crystal form C], the “Final pH” value ([1]; FaSSIF, 37° C.) was 3.27, the “solubility at 1 h” value ([1]; FaSSIF, 37° C.) was 1160 µg/mL and the “solubility at 24 h” value ([1]; FaSSIF, 37° C.) was 880 µg/mL. For the same molecule, the “Final pH” value ([1]; FessIF, 37° C.) was 4.83, the “solubility at 1 h” value ([1]; FessIF, 37° C.) was 640 µg/mL and the “solubility at 24 h” value ([1]; FessIF, 37° C.) was 420 µg/mL. The “Final pH” value ([1]; SGF, 37° C.) was 1.26, the “solubility at 1 h” value ([1]; SGF, 37° C.) was 940 µg/mL and the “solubility at 24 h” value ([1]; SGF, 37° C.) was 790 µg/mL. For the same molecule, the “Final pH” value ([1]; Water, 37° C.) was 2.49, the “Solubility in water compared to mixture of crystal forms A and B (in words)” value ([1]; Water, 37° C.) was “reduced solubility in water compared to the mixture of crystal forms A and B” and the “solubility at 1 h” value ([1]; Water, 37° C.) was 8320 µg/mL. For the same molecule, the “solubility at 24 h” value ([1]; Water, 37° C.) was 7540 µg/mL, the “Solubility at 1 h (mg/mL)” value [1, 7] was 0.56(1 h) mg/mL and the “Solubility (mg/mL) (48 h)” value [1, 7] was 0.21(48 h) mg/mL. For the same molecule, the “Final pH” value ([1]; pH 6.8, 37° C., 1 h line) was 6.65, the “Final pH” value ([1]; pH 6.8, 37° C., 48 h line) was 6.82 and the “Solubility at 1 h (mg/mL)” value [1, 8] was 0.45(1 h) mg/mL. For the same molecule, the “Solubility (mg/mL) (48 h)” value [1, 8] was 0.24(48 h) mg/mL, the “Final pH” value ([1]; pH 7.4, 37° C., 1 h line) was 7.23 and the “Final pH” value ([1]; pH 7.4, 37° C., 48 h line) was 7.42. The “Chemical stability (in words)” value ([2]; 40° C./75% RH and 60° C. for 1 month) was “good chemical stability”, the “Maximum single impurity %” value ([2]; 40° C./75% RH-closed-1 M) was 0.29% and the Purity % ([2]; 40° C./75% RH-closed-1 M) was 99.58%. The Total impurity % ([2]; 40° C./75% RH-closed-1 M) was 0.42%, the “Maximum single impurity %” value ([2]; 40° C.75% RH-open-1 M) was 0.27% and the Purity % ([2]; 40° C.75% RH-open-1 M) was 99.60%. For the same molecule, the Total impurity % ([2]; 40° C.75% RH-open-1 M) was 0.40%, the “Maximum single impurity %” value ([2]; 60° C.-closed-1 M) was 0.32% and the Purity % ([2]; 60° C.-closed-1 M) was 99.56%. For the same molecule, the Total impurity % ([2]; 60° C.-closed-1 M) was 0.44%, the Appearance ([2]; Initial) was “White powder” and the “Maximum single impurity %” value [2, 9] was 0.65% and 0.96%. For the same molecule, the Purity % [2, 9] was 99.17% and 98.88%, the Total impurity % [2, 9] was 0.83% and 1.12% and the “Crystal form by XRPD after storage (FIG. 18)” value ([2]; acceleration and high temperature conditions, 1 month) was “not changed”. The “Crystal form by XRPD after exposure (FIGS. 19 and 20)” value [3] was “not changed”.

In the case of `COc1cc(C)c2[nH]ccc2c1CN1CCC(OCC2CC2)CC1c1ccc(C(=O)O)cc1.Cl` (stereo not shown) [Crystal form A], the “Crystal form after open storage” value [4] was “transformed into crystal form B”.

In the case of `COc1cc(C)c2[nH]ccc2c1CN1CCC(OCC2CC2)CC1c1ccc(C(=O)O)cc1.O=P(O)(O)O` (stereo not shown) [Compound of formula I Phosphate], the “Stability (conclusion in words from Table 7)” value [5] was “stable”, the Appearance ([5]; 40° C./75% RH-closed-2 wks) was “White powder” and the “Maximum single impurity %” value ([5]; 40° C./75% RH-closed-2 wks) was 0.09%. The Purity % ([5]; 40° C./75% RH-closed-2 wks) was 99.63%, the Total impurity % ([5]; 40° C./75% RH-closed-2 wks) was 0.37% and the Appearance ([5]; 40° C./75% RH-open-2 wks) was “White powder”. The “Maximum single impurity %” value ([5]; 40° C./75% RH-open-2 wks) was 0.09%, the Purity % ([5]; 40° C./75% RH-open-2 wks) was 99.64% and the Total impurity % ([5]; 40° C./75% RH-open-2 wks) was 0.36%. For the same molecule, the Appearance ([5]; 60° C.-closed-2 wks) was “White powder”, the “Maximum single impurity %” value ([5]; 60° C.-closed-2 wks) was 0.08% and the Purity % ([5]; 60° C.-closed-2 wks) was 99.62%. The Total impurity % ([5]; 60° C.-closed-2 wks) was 0.38%, the Appearance ([5]; Initial) was “White powder” and the “Maximum single impurity %” value ([5]; Initial) was 0.07%. The Purity % ([5]; Initial) was 99.75%, the Total impurity % ([5]; Initial) was 0.25% and the “Final pH” value ([6]; FaSSIF) was 4.76. For the same molecule, the “Solubility (mg/mL) (1 h)” value ([6]; FaSSIF) was 0.45 mg/mL, the “Solubility (mg/mL) (24 h)” value ([6]; FaSSIF) was 0.27 mg/mL and the “Final pH” value ([6]; FessIF) was 4.84. For the same molecule, the “Solubility (mg/mL) (1 h)” value ([6]; FessIF) was 0.64 mg/mL, the “Solubility (mg/mL) (24 h)” value ([6]; FessIF) was 0.40 mg/mL and the “Final pH” value ([6]; SGF) was 1.61. The “Solubility (mg/mL) (1 h)” value ([6]; SGF) was 5.35 mg/mL, the “Solubility (mg/mL) (24 h)” value ([6]; SGF) was 5.55 mg/mL and the “Final pH” value ([6]; Water) was 2.53. For the same molecule, the “Solubility (mg/mL) (1 h)” value ([6]; Water) was 8.07 mg/mL and the “Solubility (mg/mL) (24 h)” value ([6]; Water) was 6.24 mg/mL.

In the case of `COc1cc(C)c2[nH]ccc2c1CN1CC[C@H](OCC2CC2)C[C@H]1c1ccc(C(=O)O)cc1` [Compound of formula I Monohydrochloride], the “Stability (conclusion in words from Table 7)” value ([5]; listed as monohydrochloride) was “more stable”, the Appearance ([5]; 40° C./75% RH-closed-2 wks) was “White powder” and the “Maximum single impurity %” value ([5]; 40° C./75% RH-closed-2 wks) was 0.11%. For the same molecule, the Purity % ([5]; 40° C./75% RH-closed-2 wks) was 99.57%, the Total impurity % ([5]; 40° C./75% RH-closed-2 wks) was 0.43% and the Appearance ([5]; 40° C./75% RH-open-2 wks) was “White powder”. The “Maximum single impurity %” value ([5]; 40° C./75% RH-open-2 wks) was 0.10%, the Purity % ([5]; 40° C./75% RH-open-2 wks) was 99.59% and the Total impurity % ([5]; 40° C./75% RH-open-2 wks) was 0.41%. For the same molecule, the Appearance ([5]; 60° C.-closed-2 wks) was “White powder”, the “Maximum single impurity %” value ([5]; 60° C.-closed-2 wks) was 0.13% and the Purity % ([5]; 60° C.-closed-2 wks) was 99.59%. For the same molecule, the Total impurity % ([5]; 60° C.-closed-2 wks) was 0.41%, the Appearance ([5]; Initial) was “White powder” and the “Maximum single impurity %” value ([5]; Initial) was 0.14%. The Purity % ([5]; Initial) was 99.59%, the Total impurity % ([5]; Initial) was 0.41% and the “Final pH” value [6, 10] was 3.83. For the same molecule, the “Solubility (mg/mL) (1 h)” value [6, 10] was 0.64 mg/mL, the “Solubility (mg/mL) (24 h)” value [6, 10] was 0.39 mg/mL and the “Final pH” value [6, 11] was 4.85. For the same molecule, the “Solubility (mg/mL) (1 h)” value [6, 11] was 0.74 mg/mL, the “Solubility (mg/mL) (24 h)” value [6, 11] was 0.44 mg/mL and the “Final pH” value [6, 12] was 1.52. For the same molecule, the “Solubility (mg/mL) (1 h)” value [6, 12] was 5.90 mg/mL, the “Solubility (mg/mL) (24 h)” value [6, 12] was 5.97 mg/mL and the “Final pH” value [6, 13] was 2.49. For the same molecule, the “Solubility (mg/mL) (1 h)” value [6, 13] was 11.74 mg/mL and the “Solubility (mg/mL) (24 h)” value [6, 13] was 11.14 mg/mL.

In the case of `COc1cc(C)c2[nH]ccc2c1CN1CCC(OCC2CC2)CC1c1ccc(C(=O)O)cc1.O=C(O)C=CC(=O)O` (stereo not shown) [Compound of formula I Maleate], the “Stability (conclusion in words from Table 7)” value [5] was “stable”, the Appearance ([5]; 40° C./75% RH-closed-2 wks) was “White powder” and the “Maximum single impurity %” value ([5]; 40° C./75% RH-closed-2 wks) was 0.08%. For the same molecule, the Purity % ([5]; 40° C./75% RH-closed-2 wks) was 99.78%, the Total impurity % ([5]; 40° C./75% RH-closed-2 wks) was 0.22% and the “Maximum single impurity %” value ([5]; 40° C./75% RH-open-2 wks) was 0.09%. For the same molecule, the Purity % ([5]; 40° C./75% RH-open-2 wks) was 99.64%, the Total impurity % ([5]; 40° C./75% RH-open-2 wks) was 0.36% and the Appearance ([5]; 60° C.-closed-2 wks) was “White powder”. For the same molecule, the “Maximum single impurity %” value ([5]; 60° C.-closed-2 wks) was 0.09%, the Purity % ([5]; 60° C.-closed-2 wks) was 99.69% and the Total impurity % ([5]; 60° C.-closed-2 wks) was 0.31%. For the same molecule, the Appearance ([5]; Initial) was “White powder”, the “Maximum single impurity %” value ([5]; Initial) was 0.08% and the Purity % ([5]; Initial) was 99.80%. It also gave a Total impurity % ([5]; Initial) of 0.20%.
